According to patent publication US20100330588A1, “METHOD TO QUANTIFY METHYLTRANSFERASE ACTIVITY” (Utah State University, priority 2009, published 2010):

Test system: Histone H3.3
Assay: methylation of Histone H3.3 by PRMT6 fusion proteins, reverse phase resin method of scheme 2
Format: biochemical
Conditions: 500 nM enzyme; 1.7 μM Histone H3.3; 37° C.
Procedure: Assays were performed at 37° C., in a final volume of 125 μl. Each assay contained 1.0 μM unlabeled S-adenosyl-L-methionine (AdoMet), […] S-adenosyl-L-[methyl-^3H]methionine (specific activity 67.3 Ci/mmol, 0.55 μCi/μl, Perkin Elmer), 100 mM Hepes, 0.38 μM bovine serum albumin (BSA), 10% glycerol, 10 nM AdoHcy Nucleosidase (MTAN), and 1.7 μM protein substrate; pH of reaction was 7.6. […] Samples (10 μL) were removed at specified times and were analyzed using either SDS-PAGE or methods related to the present disclosure, as discussed below.
A 10 µL aliquot of the reaction mixture was transferred to 6 μl of sample preparation buffer (8 M Guanidine-HCL in 2.5% trifluoroacetic acid (TFA)), making the final concentrations 3 M Guanidine-HCL and 0.94% TFA in the mixture. Guanidine-HCl denatures the protein and TFA makes the reaction very acidic so that PRMT activity is quenched. […] Eluate was dispensed into 20 ml of scintillation cocktail (Fisher Scientific) and counted in a LSC.
Referring now to FIG. 4, there is shown the comparison of the methylation activities of GST-PRMT6 and His-PRMT6 using the method disclosed in scheme 2. […] The reactions were processed and counted in scintillation cocktail.

Substance: His-PRMT6: His-tagged PRMT6 protein arginine methyltransferase expressed in E. coli BL21 and purified
- fold higher methylation activity compared to GST-PRMT6: 5 fold
